Experiment [1] deals with H1581. Briefly: MTT assay, cell proliferation, H1581. Format: cell-based. The settings on record: Homo sapiens, NCI-H1581, H1581 cells, 72 h. How it is done:
(§1) The effect of active compounds on cell proliferation was measured using an MTT assay. An experimental method was described as follows: the compounds under test were first dissolved in DMSO to prepare a stock solution, which was then diluted in gradient with a culture medium of the corresponding cells to prepare test samples, with a final concentration range of the compounds up to 20 µM. Cells in a logarithmic growth phase were seeded into 96-well cell culture plates at an appropriate density, and cultured overnight under corresponding culture conditions, and samples of the compound under test were added and continuously cultured for 72 h.
For orientation: Tetrazolium assays rely on reduction of a dye to a coloured formazan, in cell work by metabolically active cells.

For experiment [2], the system named is MRC-5. Briefly: MTT assay, cell proliferation, MRC-5. It counts as cell-based. The settings on record: Homo sapiens, MRC5, MRC-5 cells, 72 h. How it is done:
as §1

Experiment [3] concerns A549. As to the kind of experiment: MTT assay, cell proliferation, A549. Format: cell-based. The settings on record: Homo sapiens, A549 cells, 72 h. How it is done:
An experimental method was described as follows: the compounds under test were first dissolved in DMSO to prepare a stock solution, which was then diluted in gradient with a culture medium of the corresponding cells to prepare test samples, with a final concentration range of the compounds up to 20 µM. Cells in a logarithmic growth phase were seeded into 96-well cell culture plates at an appropriate density, and cultured overnight under corresponding culture conditions, and samples of the compound under test were added and continuously cultured for 72 h.

The target of experiment [4] is T1, FGFR1 kinase (Homo sapiens, UniProt P11362).
T1 construct: purchased CARNA
As to the kind of experiment: LANCE ULTRA Assay, inhibitory activity on FGFR1 kinase. The conditions noted are these: for inhibition at 1 µM: read-out: In vitro FGFR1 kinase inhibition rate (%) (Concentration in 1000 nM), Concentration 1000 nM; for inhibition at 0.1 µM: read-out: In vitro FGFR1 kinase inhibition rate (%) (Concentration in 100 nM), Concentration 100 nM. It counts as biochemical. On the procedure:
The inhibitory activity of the compounds on FGFR1 kinase was determined using a LANCE ULTRA Assay. The FGFR1 kinase was purchased from CARNA. Specific method was as follows: the compounds under test, adenosine triphosphate (ATP), specific substrate, and FGFR1 kinase were diluted with kinase diluent. A kinase reaction mixture contained FGFR1, ATP, substrate, HEPES (pH = 7.5), MgCl2, EGTA, and Tween-20. A group without any test compound served as a 100% phosphorylation control, and a group where EDTA was added immediately after the addition of FGFR1 kinase served as a 0% phosphorylation control. The kinase reaction mixture was incubated at room temperature for 1 h, and EDTA was added to terminate the reaction for 5 min, a specific antibody was then added, and the mixture was incubated at room temperature for another 1 h, and excitation light was detected using a PerkinElmer Envision Kinase Reader.
On the technique in general: Time-resolved FRET reads energy transfer from a long-lived donor to a nearby acceptor.

We go through twelve compounds from patent EP4617261A1, “2,4,5-TRISUBSTITUTED PYRIMIDINE COMPOUND, PREPARATION METHOD THEREFOR, AND USE THEREOF” (Wenzhou Medical University, priority 2022, dated 2024).

As a reminder, the IC50 is the concentration that gives 50% inhibition.

T1 sequence (P11362 22-822): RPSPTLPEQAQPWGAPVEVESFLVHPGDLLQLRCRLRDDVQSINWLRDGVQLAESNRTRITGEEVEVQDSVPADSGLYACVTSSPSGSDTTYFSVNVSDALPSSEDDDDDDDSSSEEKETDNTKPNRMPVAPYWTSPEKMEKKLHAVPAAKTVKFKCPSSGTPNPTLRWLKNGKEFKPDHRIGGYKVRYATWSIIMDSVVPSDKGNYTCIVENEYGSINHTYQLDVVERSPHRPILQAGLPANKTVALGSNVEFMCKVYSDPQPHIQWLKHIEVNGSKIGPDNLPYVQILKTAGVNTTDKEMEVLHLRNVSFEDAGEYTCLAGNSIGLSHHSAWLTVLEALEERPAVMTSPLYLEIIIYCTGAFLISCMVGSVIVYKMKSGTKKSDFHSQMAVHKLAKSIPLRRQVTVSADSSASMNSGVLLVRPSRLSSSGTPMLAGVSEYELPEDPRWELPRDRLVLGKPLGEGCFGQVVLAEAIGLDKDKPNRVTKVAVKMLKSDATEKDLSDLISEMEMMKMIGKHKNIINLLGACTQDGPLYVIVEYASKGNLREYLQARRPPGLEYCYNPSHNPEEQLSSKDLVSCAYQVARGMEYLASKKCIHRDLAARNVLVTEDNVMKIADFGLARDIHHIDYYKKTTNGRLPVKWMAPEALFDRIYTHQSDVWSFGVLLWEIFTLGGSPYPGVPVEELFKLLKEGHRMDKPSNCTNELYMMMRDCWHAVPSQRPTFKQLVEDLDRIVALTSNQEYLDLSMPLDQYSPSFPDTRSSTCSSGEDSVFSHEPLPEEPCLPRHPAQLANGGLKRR

For `C=CC(=O)Nc1ccc(Nc2nc(Nc3ccc(N4C[C@@H](C)N[C@@H](C)C4)c(OC)c3)ncc2Cl)cc1Cl` [Compound 46], the figures for the IC50 in experiment [1], in experiment [2] and in experiment [3] were 0.018 ± 0.00178 µM, 0.84 ± 0.07 µM and 0.38 ± 0.1 µM, respectively.

`C=CC(=O)Nc1cccc(C)c1Nc1nc(Nc2ccc(N3CCN(C)CC3)cc2)ncc1F` [Compound 10]: in experiment [4], the inhibition at 1 µM was determined as 1.23%.

Take `C=CC(=O)Nc1cccc(C)c1Nc1nc(Nc2ccc(N3CCN(C)CC3)cc2)ncc1C(F)(F)F` [Compound 14]: the inhibition at 0.1 µM in experiment [4] is 11.4%.

On to `C=CC(=O)Nc1cccc(C)c1Nc1nc(Nc2ccc(N3CCN(C)CC3)cc2)ncc1Cl` [Compound 11, N-(2-((5-chloro-2-((4-(4-methylpiperazine-1-yl)phenyl)amino)pyrimidine-4-yl)amino)-3-methylphenyl)acrylamide], for which the inhibition at 0.1 µM in experiment [4] stood at 1.4%.

With `C=CC(=O)Nc1ccc(CCNc2nc(Nc3ccc(N4CCN(C)CC4)cc3)ncc2Cl)cc1` [Compound 33, N-(4-(2-((5-chloro-2-((4-(4-methylpiperazine-1-yl)phenyl)amino)pyrimidine-4-yl)amino)ethyl)phenyl)acrylamide], the IC50 in experiment [4] (read-out: In vitro FGFR1 kinase IC50 value) amounted to 60.7 nM. Also, in experiment [4], the inhibition at 0.1 µM was 66.4%.

With `C=CC(=O)Nc1ccccc1Nc1nc(Nc2ccc(N3CCN(C)CC3)cc2)ncc1Cl` [Compound 9], the inhibition at 1 µM in experiment [4] was found to be 94.9%.

For the compound `C=CC(=O)Nc1cccc(C)c1Nc1nc(Nc2ccc(N3CCN(C)CC3)cc2)ncc1C` [Compound 12], in experiment [4], the inhibition at 0.1 µM is -1.1%.

As for `C=CC(=O)Nc1cccc(C)c1Nc1nc(Nc2ccc(N3CCN(C)CC3)cc2)ncc1OC` [Compound 13], the inhibition at 0.1 µM in experiment [4] is -0.1%.

As for `C=CC(=O)Nc1ccc(CNc2nc(Nc3ccc(N4CCN(C)CC4)cc3)ncc2F)cc1` [Compound 18], the inhibition at 0.1 µM in experiment [4] worked out at 5.5%.

Regarding `C=CC(=O)Nc1ccc(CCNc2nc(Nc3ccc(N4CCN(C)CC4)cc3)ncc2F)cc1` [Compound 17], the inhibition at 0.1 µM in experiment [4] was found to be 43%.

In the case of `CCN1CCN(c2ccc(Nc3cc(N(C)C(=O)Nc4c(Cl)c(OC)cc(OC)c4Cl)ncn3)cc2)CC1` [BGJ398, reference compound], the IC50 is 0.0867 ± 0.00151 µM in experiment [1] and 144 µM in experiment [2].

`C=CC(=O)NC(=O)c1ccc(Nc2nc(Nc3ccc(N4CCN(C)CC4)cc3)ncc2Cl)cc1Cl` [Compound 38, N-acryloyl-2-chloro-4-((5-chloro-2-((4-(4-methylpiperazine-1-yl)phenyl)amino)pyrimidine-4-yl)amino)benzamide]: in experiment [4], the inhibition at 0.1 µM amounted to 50.3%.
